This is an account of results in patent US12558338B2, “Pharmaceutical composition” (SUNSHINE LAKE PHARMA CO., LTD., priority 2019, dated 2026).

The data set can be described thus: Solubility in water. It counts as physicochemical. The settings on record: compared with memantine hydrochloride.

Structures are written as SMILES.

On to `CC12CC3CC(C)(C1)CC(NC(=O)OCOC(=O)c1ccccc1)(C3)C2` [formula A, ((((1r,3R,5S,7r)-3,5-dimethyladamantan-1-yl)carbamoyl)oxy)methyl benzoate], for which the solubility result was “almost insoluble in water”.
